Tests used:
[1] = tested on: SMN2 Protein; test: SMN Protein Assay (MSD); assay type: cell-based, human; details: SMA patient fibroblasts, 48 hours, 0.6 nM to 2.5 µM
Protocol: Spinal muscular atrophy (SMA) patient fibroblasts were plated in 96-well plates at 7,000 cells/well. Compounds were added in concentrations ranging from 0.6 nM to 2.5 µM, incubated for 48 hours and the cells were lysed with 100 µL of lysis buffer. 20 µL of lysate was used for SMN protein measurement by Mesoscale Discovery (MSD) assay developed by PharmOptima (Michigan). A standard curve prepared with SMN protein ranging from 1 µg/ml to 19.5pg/ml was used in each MSD plate to calculate the absolute SMN protein amount in each sample.

[2] = tested on: SMN2 Splicing D7 (SMN Δ7 transcript); test: SMN Quantitative Splicing Assay (qPCR); assay type: cell-based, human; details: Homo sapiens, Fibroblast, 24 h, SMA patient fibroblasts (GM03813), 2.5 µM to 0.6 nM
Protocol: Spinal muscular atrophy (SMA) patient fibroblasts (GM03813, Coriell) were plated in 96-well plates at 50,000 cells/well. […] Treated cells were lysed and cDNA synthesized using the Fast Advanced Cells-to-Ct kit (Thermofisher A35378) according to the manufacturer’s instructions. 2 µL of each cDNA were used in qPCR reactions. […] Reactions were run in a Quant Studio 6 qPCR instrument with default settings.

SMILES: Cc1cc(=O)c2cc(-c3ncc(N(C)[C@@H]4C[C@H]5CC[C@H](N5)[C@@H]4F)nn3)c(O)cc2o1 (single isomer, unassigned) [Compound 1A]
- EC50 [1]: 16 to 50 nM
- IC50 [2]: 16 to 50 nM

SMILES: Cc1cc(=O)c2cc(-c3ncc(N(C)[C@H]4C[C@@H]5CC[C@@H](N5)[C@H]4F)nn3)c(O)cc2o1 (single isomer, unassigned) [Compound 1B]
- EC50 [1]: 0.01 to 15 nM
- IC50 [2]: 16 to 50 nM

SMILES: CN(c1cnc(-c2cc3cnn(C)c(=O)c3cc2O)nn1)[C@@H]1CC2CCC(N2)[C@@H]1F (single isomer, unassigned) [Compound 2A]
- EC50 [1]: 0.01 to 15 nM
- IC50 [2]: 0.01 to 15 nM

SMILES: CN(c1cnc(-c2cc3cnn(C)c(=O)c3cc2O)nn1)[C@H]1CC2CCC(N2)[C@H]1F (single isomer, unassigned) [Compound 2B]
- EC50 [1]: 0.01 to 15 nM
- IC50 [2]: 0.01 to 15 nM

SMILES: CN(c1cnc(-c2cc3ncn(C)c(=O)c3cc2O)nn1)[C@@H]1CC2CCC(N2)[C@@H]1F (single isomer, unassigned) [Compound 3A]
- EC50 [1]: 16 to 50 nM
- IC50 [2]: 16 to 50 nM

SMILES: CN(c1cnc(-c2cc3ncn(C)c(=O)c3cc2O)nn1)[C@H]1CC2CCC(N2)[C@H]1F (single isomer, unassigned) [Compound 3B]
- EC50 [1]: 0.01 to 15 nM
- IC50 [2]: 0.01 to 15 nM

SMILES: CN(c1cnc(-c2cc3ccn(C)c(=O)c3cc2O)nn1)[C@@H]1CC2CCC(N2)[C@@H]1F (single isomer, unassigned) [Compound 4A]
- EC50 [1]: 16 to 50 nM
- IC50 [2]: 16 to 50 nM

SMILES: CN(c1cnc(-c2cc3ccn(C)c(=O)c3cc2O)nn1)[C@H]1CC2CCC(N2)[C@H]1F (single isomer, unassigned) [Compound 4B]
- EC50 [1]: 0.01 to 15 nM
- IC50 [2]: 0.01 to 15 nM

SMILES: CN(c1cnc(-c2cc3cnccc3cc2O)nn1)[C@@H]1CC2CCC(N2)[C@@H]1F (single isomer, unassigned) [Compound 5A]
- EC50 [1]: 101 to 500 nM
- IC50 [2]: 101 to 500 nM

SMILES: CN(c1cnc(-c2cc3cnccc3cc2O)nn1)[C@H]1C[C@@H]2CC[C@@H](N2)[C@H]1F (single isomer, unassigned) [Compound 5B]
- EC50 [1]: 0.01 to 15 nM
- IC50 [2]: 16 to 50 nM

SMILES: Cc1cc(=O)c2cc(O)c(-c3ncc(N(C)[C@@H]4C[C@H]5CCC(N5)[C@@H]4F)nn3)cc2o1 (single isomer, unassigned) [Compound 6A]
- EC50 [1]: 0.01 to 15 nM
- IC50 [2]: 16 to 50 nM

SMILES: Cc1cc(=O)c2cc(O)c(-c3ncc(N(C)[C@H]4CC5CC[C@@H](N5)[C@H]4F)nn3)cc2o1 (single isomer, unassigned) [Compound 6B]
- EC50 [1]: 0.01 to 15 nM
- IC50 [2]: 0.01 to 15 nM

SMILES: Cc1ncc2cc(O)c(-c3ncc(N(C)[C@@H]4CC5CCC(N5)[C@@H]4F)nn3)cc2n1 (single isomer, unassigned) [Compound 39]
- EC50 [1]: 51 to 100 nM
- IC50 [2]: 101 to 500 nM

SMILES: Cc1cnc2cc(-c3ncc(N(C)[C@H]4C[C@@H]5CCC(N5)[C@H]4F)nn3)c(O)cc2n1 (single isomer, unassigned) [Compound 54]
- EC50 [1]: 101 to 500 nM
- IC50 [2]: 16 to 50 nM

SMILES: CCc1coc2cc(-c3ncc(N(C)[C@H]4C[C@@H]5CC[C@@H](N5)[C@H]4F)nn3)c(O)cc2c1=O (single isomer, unassigned) [Compound 96]
- EC50 [1]: 0.01 to 15 nM
- IC50 [2]: 0.01 to 15 nM

SMILES: CN(c1cnc(-c2cc3ccn(C)c(=O)c3cc2O)nn1)[C@H]1CC2CC[C@@H](N2)[C@H]1F [Compound 7A]
- EC50 [1]: 0.01 to 15 nM
- IC50 [2]: 0.01 to 15 nM

SMILES: CN(c1cnc(-c2cc3ccn(C)c(=O)c3cc2O)nn1)[C@@H]1C[C@H]2CCC(N2)[C@@H]1F [Compound 7B]
- EC50 [1]: 0.01 to 15 nM
- IC50 [2]: 16 to 50 nM

SMILES: CNC(=O)c1ccc2cc(-c3ncc(N(C)[C@@H]4C[C@H]5CC[C@@H](C4)N5)nn3)c(O)cc2n1 [Compound 9]
- EC50 [1]: 0.01 to 15 nM

SMILES: CN(c1cnc(-c2cc3occc(=O)c3cc2O)nn1)C1CC2CCC(N2)C1F (stereo not shown) [Compound 17]
- EC50 [1]: 16 to 50 nM
- IC50 [2]: 16 to 50 nM

SMILES: CN(c1cnc(-c2cc3occc(=O)c3cc2O)nn1)[C@H]1C[C@@H]2CCC(N2)[C@H]1F [Compound 18]
- EC50 [1]: 0.01 to 15 nM
- IC50 [2]: 0.01 to 15 nM

SMILES: CN(c1cnc(-c2cc3nccnc3cc2O)nn1)[C@@H]1CC2CC[C@H](N2)[C@@H]1F [Compound 19]
- EC50 [1]: 101 to 500 nM
- IC50 [2]: 101 to 500 nM

SMILES: CN(c1cnc(-c2cc3nccnc3cc2O)nn1)C1CC2CCC(N2)C1F (stereo not shown) [Compound 20]
- EC50 [1]: 16 to 50 nM
- IC50 [2]: 16 to 50 nM

SMILES: CN(c1cnc(-c2cc3ccncc3cc2O)nn1)C1CC2CCC(N2)C1F (stereo not shown) [Compound 21]
- EC50 [1]: 16 to 50 nM
- IC50 [2]: 101 to 500 nM

SMILES: CN(c1cnc(-c2cc3ccncc3cc2O)nn1)C1CC2CCC(N2)[C@H]1F (stereo partly shown) [Compound 22]
- EC50 [1]: 0.01 to 15 nM
- IC50 [2]: 16 to 50 nM

SMILES: CN(c1cnc(-c2cc3cccnc3cc2O)nn1)C1CC2CCC(N2)[C@@H]1F (stereo partly shown) [Compound 23]
- EC50 [1]: 501 to 10000 nM
- IC50 [2]: 101 to 500 nM

SMILES: CN(c1cnc(-c2cc3cccnc3cc2O)nn1)C1CC2CCC(N2)[C@H]1F (stereo partly shown) [Compound 24]
- EC50 [1]: 16 to 50 nM
- IC50 [2]: 16 to 50 nM

SMILES: CN(c1cnc(-c2cc3cncnc3cc2O)nn1)C1CC2CCC(N2)[C@@H]1F (stereo partly shown) [Compound 25]
- EC50 [1]: 501 to 10000 nM
- IC50 [2]: 101 to 500 nM

SMILES: CN(c1cnc(-c2cc3cncnc3cc2O)nn1)C1CC2CCC(N2)[C@H]1F (stereo partly shown) [Compound 26]
- EC50 [1]: 16 to 50 nM
- IC50 [2]: 51 to 100 nM

SMILES: Cc1coc2cc(-c3ncc(N(C)C4CC5CCC(N5)[C@@H]4F)nn3)c(O)cc2c1=O (stereo partly shown) [Compound 27]
- EC50 [1]: 0.01 to 15 nM
- IC50 [2]: 0.01 to 15 nM

SMILES: Cc1coc2cc(-c3ncc(N(C)C4CC5CCC(N5)[C@H]4F)nn3)c(O)cc2c1=O (stereo partly shown) [Compound 28]
- EC50 [1]: 0.01 to 15 nM
- IC50 [2]: 0.01 to 15 nM

SMILES: CC(C)n1ncc2cc(-c3ncc(N(C)C4CC5CCC(N5)[C@@H]4F)nn3)c(O)cc2c1=O (stereo partly shown) [Compound 29]
- EC50 [1]: 501 to 10000 nM
- IC50 [2]: 501 to 10000 nM

SMILES: CC(C)n1cnc2cc(-c3ncc(N(C)C4CC5CCC(N5)[C@H]4F)nn3)c(O)cc2c1=O (stereo partly shown) [Compound 30]
- EC50 [1]: 101 to 500 nM
- IC50 [2]: 101 to 500 nM

SMILES: CCn1cnc2cc(-c3ncc(N(C)C4CC5CCC(N5)[C@@H]4F)nn3)c(O)cc2c1=O (stereo partly shown) [Compound 31]
- EC50 [1]: 51 to 100 nM
- IC50 [2]: 51 to 100 nM

SMILES: CCn1cnc2cc(-c3ncc(N(C)C4CC5CCC(N5)[C@H]4F)nn3)c(O)cc2c1=O (stereo partly shown) [Compound 32]
- EC50 [1]: 0.01 to 15 nM
- IC50 [2]: 0.01 to 15 nM

SMILES: CCn1ccc2cc(-c3ncc(N(C)C4CC5CCC(N5)[C@@H]4F)nn3)c(O)cc2c1=O (stereo partly shown) [Compound 33]
- EC50 [1]: 16 to 50 nM
- IC50 [2]: 101 to 500 nM

SMILES: CCn1ccc2cc(-c3ncc(N(C)C4CC5CCC(N5)[C@H]4F)nn3)c(O)cc2c1=O (stereo partly shown) [Compound 34]
- EC50 [1]: 0.01 to 15 nM
- IC50 [2]: 0.01 to 15 nM

SMILES: CN(c1cnc(-c2cc3ncn(C)c(=O)c3cc2O)nn1)C1C[C@@]2(C)CCC(N2)[C@@H]1F (stereo partly shown) [Compound 35]
- EC50 [1]: 0.01 to 15 nM
- IC50 [2]: 0.01 to 15 nM

SMILES: CN(c1cnc(-c2cc3ncn(C)c(=O)c3cc2O)nn1)C1C[C@]2(C)CCC(N2)[C@H]1F (stereo partly shown) [Compound 36]
- EC50 [1]: 16 to 50 nM
- IC50 [2]: 16 to 50 nM

SMILES: CN(c1cnc(-c2cc3c(F)cn(C)c(=O)c3cc2O)nn1)[C@@H]1C[C@@]2(C)CCC(N2)[C@@H]1F [Compound 37]
- EC50 [1]: 0.01 to 15 nM
- IC50 [2]: 0.01 to 15 nM

SMILES: CN(c1cnc(-c2cc3c(F)cn(C)c(=O)c3cc2O)nn1)[C@H]1C[C@]2(C)CCC(N2)[C@H]1F [Compound 38]
- EC50 [1]: 0.01 to 15 nM
- IC50 [2]: 0.01 to 15 nM

SMILES: Cc1ncc2cc(O)c(-c3ncc(N(C)[C@H]4CC5CCC(N5)[C@H]4F)nn3)cc2n1 (stereo partly shown) [Compound 40]
- EC50 [1]: 0.01 to 15 nM
- IC50 [2]: 16 to 50 nM

SMILES: Cc1cc2cc(-c3ncc(N(C)[C@@H]4CC5CCC(N5)[C@@H]4F)nn3)c(O)cc2cn1 (stereo partly shown) [Compound 43]
- EC50 [1]: 16 to 50 nM
- IC50 [2]: 51 to 100 nM

SMILES: Cc1cc2cc(-c3ncc(N(C)[C@H]4CC5CCC(N5)[C@H]4F)nn3)c(O)cc2cn1 (stereo partly shown) [Compound 44]
- EC50 [1]: 0.01 to 15 nM
- IC50 [2]: 0.01 to 15 nM

SMILES: Cc1cc2cc(O)c(-c3ncc(N(C)[C@@H]4CC5CCC(N5)[C@@H]4F)nn3)cc2cn1 (stereo partly shown) [Compound 45]
- EC50 [1]: 16 to 50 nM
- IC50 [2]: 16 to 50 nM

SMILES: CN(c1cnc(-c2cc3c(F)cn(C)c(=O)c3cc2O)nn1)[C@H]1CC2COCC(N2)[C@H]1F (stereo partly shown) [Compound 218]
- IC50 [2]: 51 to 100 nM

SMILES: CN(c1cnc(-c2cc3c(F)cn(C)c(=O)c3cc2O)nn1)[C@@H]1CC2COCC(N2)[C@@H]1F (stereo partly shown) [Compound 219]
- IC50 [2]: 16 to 50 nM

SMILES: CCn1cc(F)c2cc(-c3ncc(N(C)[C@H]4CC5COCC(N5)[C@H]4F)nn3)c(O)cc2c1=O (stereo partly shown) [Compound 221]
- IC50 [2]: 501 to 10000 nM

SMILES: CCn1cc(F)c2cc(-c3ncc(N(C)[C@@H]4CC5COCC(N5)[C@@H]4F)nn3)c(O)cc2c1=O (stereo partly shown) [Compound 222]
- IC50 [2]: 101 to 500 nM

Reference: US20230331718A1, “COMPOSITIONS FOR MODULATING SPLICING” (Skyhawk Therapeutics, Inc., priority 2020, published 2023)
